Results as given in a melting point compilation (Tetko et al.; mined from patent text by program, amines drawn as free bases though some values may be those of a salt).

melting point	SMILES
88 to 89 °C	CN(C)C1CCc2oc3ccc([N+](=O)[O-])cc3c2C1 (stereo unspecified)
227 to 229 °C	Cc1c(-c2ccc(O)c(Cl)c2)sc(C=O)c1-c1ccc(O)c(F)c1
245 °C	N#Cc1ccc(-c2n[nH]c3c2Cc2ccccc2-3)cc1
184 to 186 °C	Cc1ncc2c(c1OCC(=O)O)COC2(C)c1ccc(F)cc1 (stereo unspecified)
171 to 173 °C	COc1ccc2c3c(c(=O)oc2c1)CN(Cc1cc(OC)c(OC)c(OC)c1)CC3
228 °C	CCN1CCCC1CNC(=O)c1ccc(O)c(Cl)c1 (stereo unspecified)
173 to 175 °C	CCOCc1nc2c(N)ncc(C)c2n1CCCCNS(C)(=O)=O
111 to 113 °C	CCOC(=O)Nc1c(Cl)cc(OC)c(OC)c1C(=O)OCC
186 to 188 °C	CC(C)[C@H](NC(=O)OCc1ccccc1)C(=O)N[C@@H](Cc1ccccc1)C(=O)C[C@@H]1CCCC[C@H]1C(=O)NC(C)(C)C
156 to 163 °C	Cc1nc(Nc2ccc(F)c(Cl)c2)c2nc(N3CCC(N)CC3)ncc2n1
196 to 198 °C	CCOc1cc2c(-c3ccnc(Cl)c3)c(C(=O)OC)c(C(=O)OC)cc2cc1OC
132 to 134 °C	COc1ccc2c(c1)OC(CNCCCOc1cnc3ccccc3c1)CC2 (stereo unspecified)
224 to 226 °C	C=C1N=C(c2ccccc2F)c2cc(Cl)ccc2C(=O)C1N(C)C (stereo unspecified)
191 to 193 °C	O=C1CNC(=O)N1Cc1ccc2c(c1)N(C1CCN(CCc3ccc(F)cc3)CC1)CC2
136 to 139 °C	CCOC(=O)C(=O)Nc1ccc(NS(C)(=O)=O)cc1
135 to 136 °C	CC(C)(C)Oc1ccc(C(N)=O)cc1
198 to 200 °C	CC(C)n1cc(-c2ccc(C=O)cc2)c2c(N)ncnc21
148 to 151 °C	O=C1c2ccccc2C(=O)N1CC1CC1c1cccc2nscc12 (stereo unspecified)
> 300 °C	COc1ccccc1NC=C1C(=O)N(c2ccc(C(=O)O)cc2)N=C1C
124 to 126 °C	CC1(C)OCC(CO)(CO)CO1
117 to 119 °C	O=C1OCCC1Oc1ccc(-c2ccccc2)cc1[N+](=O)[O-] (stereo unspecified)
131 to 132 °C	CS(=O)(=O)c1ccc(-c2cc(C(=O)CCCO[N+](=O)[O-])nn2-c2ccc(Cl)cc2)cc1

Continued, compound first:

SMILES	melting point
CC1=CC(c2cccc([N+](=O)[O-])c2)C(C(=O)O)=NN1 (stereo unspecified)	149 °C
CCCCC[C@@H](CNC(=O)Nc1c(OC(C)C)c(C)nn1C)c1cccc2c1OCO2	123 to 124 °C
COc1c(C)cc(-c2[nH]c3ccc(NS(=O)(=O)c4ccc(C)cc4)cc3c2C)cc1C	192 to 194 °C
NC(=O)Cc1cc(Oc2ccc3c(ccn3C(=O)Nc3ccc(N4CCOCC4)c(C(F)(F)F)c3)c2)ncn1	272 to 275 °C
Cc1c(C(=O)O)c(CC(=O)O)n(C)c1C(=O)c1cccnc1	186 to 188 °C
O=C1c2ccccc2C(=O)N1C[C@@H]1CCC=CO1	87 to 88 °C
CC(C)(C)OC(=O)N(CCOc1cccc2[nH]ccc12)Cc1ccccc1	46 to 48 °C
Oc1ccc(C(O)CN2CCC(O)(c3cccc(F)c3)CC2)cc1 (stereo unspecified)	154 °C
O=C1Nc2ccc([N+](=O)[O-])cc2/C1=C(/Nc1ccc(CN2CCCC2)cc1)c1ccccc1	45 to 50 °C
COc1ccc(Cn2cnc3c(-c4ccco4)nc(C)nc32)cc1	127 to 130 °C
Cc1ncc2ccc(-c3ccc(F)cc3)nc2n1	> 200 °C
CC(=O)CC(=O)NC1=Nc2ccc(Cl)cc2C(c2ccccc2)=NCC1	158 to 159 °C
Clc1ccc(C(Cl)c2cc3cc(Br)ccc3o2)cc1 (stereo unspecified)	83 to 85 °C
C[C@H]1N=C(c2ccccc2F)c2cc(N)ccc2N(C)C1=O	224 to 226 °C
CCOC(=O)C[C@@H]1CCCC[C@H]1n1nc(-c2c(-c3ccccc3)nn3ccccc23)ccc1=O (relative stereo)	151 to 152 °C
NC(C=Cc1ccccc1[N+](=O)[O-])=NO	173 °C
CCc1cn(C2CC(O)C(CCC(O)C(C)Oc3ccc(Cl)cc3Cl)O2)c(=O)[nH]c1=O (mixture of isomers)	108 to 111 °C
C/C(=C\c1ccc(C(=O)O)cc1)c1ccc(O)c(C23CC4CC(CC(C4)C2)C3)c1	245 to 246 °C
CC(C)c1c(Sc2cc(Cl)cc(Cl)c2)nc(CO)n1C	167 to 168 °C
COc1ccc(CN2C(=O)c3c(-c4ccccc4Cl)cc4[nH]c5ccc(OC)cc5c4c3C2=O)c(OC)c1	224 to 226 °C
CCOC(=O)C1=C(COCC(C)(O)c2ccco2)NC(C)=C(C(=O)OC)C1c1cccc(Cl)c1Cl (stereo unspecified)	88 to 90 °C
COc1ccc(S(N)(=O)=O)cc1C1CO1 (stereo unspecified)	118 °C
OCCNN=C(Cc1ccncc1)c1ccc(F)cc1	122 to 123 °C
COC(=O)c1cc(NC2CCOCC2)nc(Cl)n1	190 to 192 °C
Cc1c2cnc3c([N+](=O)[O-])cccc3c2nn1C	235 to 236 °C

SMILES	melting point
O=C(NCCN1CCN(c2cccc(Cl)c2)CC1)c1nsc2ccccc12	115 to 117 °C
Cc1nc2n(c(=O)c1CCN1CCC(=C(c3ccccc3)c3ccccc3)CC1)CCCS2	176 °C
C=C(C(=O)c1cc(C)cc(C)c1O)c1ccccc1	83 to 84 °C
COc1ccc(N2CCOCC2)c2sc(NC(=O)N(C)C3CCC(C(F)(F)F)CC3)nc12 (stereo unspecified)	157 to 167 °C
Cc1noc(C)c1S(=O)(=O)n1c(CCCC(=O)O)cc2cc(Cl)ccc21	150 to 154 °C
COc1cccc(C(F)(F)F)c1S(=O)(=O)Cl	86 to 88 °C
CC(=O)OCCN1C(=O)CN2CCOC2(c2ccccc2F)c2cc(Cl)ccc21 (stereo unspecified)	120 to 123 °C
COc1ccc(C2(C#Cc3ccc(C(=O)O)cc3)CCC(=O)CC2)cc1OC1CCCC1	170 to 171 °C
COc1ccc(C2=NN(CCCO)C(=O)[C@H]3CCCC[C@@H]23)cc1OC (relative stereo)	94 to 97 °C
CCOC(=O)c1c(Br)c2cc(OCc3ccccc3)ccc2n1C	125 to 127 °C
O=C1Nc2ccc(Cl)cc2N2CCNCC12 (stereo unspecified)	300 to 303 °C
CC(C)(O)Cn1c(CON=C2CCCC2)nc2c(N)nc3cccnc3c21	195 to 197 °C
Cc1ccc(S(=O)(=O)N(NC=O)c2ccc(NC(=S)Oc3ccccc3)cc2)cc1	195 to 196 °C
COC(=O)NC(Cc1ccccc1)C1CC(Cc2ccccc2)=NO1 (stereo unspecified)	87 to 88.5 °C
COc1cc2nc(N)nc(-c3ccc(O)cc3)c2cc1OC	245 to 248 °C
COc1ccc2oc(C(O)Cc3ccccc3)cc2c1 (stereo unspecified)	69 to 70 °C
O=C(O)c1ccccc1C(=O)NCCCCc1cccnc1	132 to 135 °C
COC(=O)[C@H](c1ccccc1Cl)N1CCc2sc(OC(=O)c3ccccc3)cc2C1	84 to 86 °C
O=C(c1ccc(C2CCCCC2)cc1)N1Cc2cccn2Cc2ccccc21	127 to 129 °C
O=C(c1ccccc1)c1ccc([N+](=O)[O-])c(C(=O)NCc2ccccc2)c1	167 °C
CS(=O)(=O)c1ccc(-n2cncc2-c2ccc(OC(F)(F)F)cc2)cc1	141 to 142 °C
COc1c(C(=O)O)nc(Br)c(Cl)c1N	154 to 156 °C
N#Cc1cnc2cnc(F)cc2c1O	214 to 215 °C
CCOCCC(=O)C=P(c1ccccc1)(c1ccccc1)c1ccccc1	63 to 65 °C
